Assay results as given in PubChem BioAssay AID192 (DTP/NCI, 2004).
Where “and” joins values, the source holds several entries; their conditions need not be identical. Equal entries are not always repeated. Inconclusive results and toxic doses are left out.

Tested on: BDF1 mice, B16 melanoma ip, median survival T/C
Assay: NCI In Vivo Anticancer Drug Screen. Data for tumor model B16 Melanoma (intraperitoneal) in B6D2F1 (BDF1) mice
Conditions: endpoint: median survival time, higher = longer survival
How it was run: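 Mice with transplantable tumors; drug vs vehicle groups; endpoint survival or tumor size; value = T/C.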

[1] = dose: 50.0 mg/kg/injection, schedule: Q01DX009 (ip), vehicle: saline with Tween-80
[2] = dose: 100.0 mg/kg/injection, schedule: Q01DX009 (ip), vehicle: saline with Tween-80
[3] = dose: 25.0 mg/kg/injection, schedule: Q01DX009 (ip), vehicle: Klucel (hydroxypropylcellulose) (HPC)
[4] = dose: 50.0 mg/kg/injection, schedule: Q01DX009 (ip), vehicle: Klucel (hydroxypropylcellulose) (HPC)
[5] = dose: 100.0 mg/kg/injection, schedule: Q01DX009 (ip), vehicle: Klucel (hydroxypropylcellulose) (HPC)
[6] = dose: 200.0 mg/kg/injection, schedule: Q01DX009 (ip), vehicle: saline with Tween-80
[7] = dose: 200.0 mg/kg/injection, schedule: Q01DX009 (ip), vehicle: Klucel (hydroxypropylcellulose) (HPC)
[8] = dose: 100.0 mg/kg/injection, schedule: Q01DX009 (ip), vehicle: saline

`CC[C@@]1(O)C[C@H](OC2CC(N(C)C)C(OC3CC(O)C(OC4CCC(=O)C(C)O4)C(C)O3)C(C)O2)c2c(cc3c(c2O)C(=O)c2c(O)ccc(O)c2C3=O)[C@H]1C(=O)OC` (stereo partly specified) was tested, and the T/C (dose: 0.25 mg/kg/injection, schedule: Q01DX009 (ip), vehicle: saline) was 119 % of control, the T/C (dose: 0.25 mg/kg/injection, schedule: Q01DX009 (ip), vehicle: water) was 110 % of control and the T/C (dose: 0.37 mg/kg/injection, schedule: Q01DX009 (ip), vehicle: saline) was 102 % of control. For the same compound, the T/C (dose: 0.5 mg/kg/injection, schedule: Q01DX009 (ip), vehicle: saline) was 114 % of control, the T/C (dose: 0.5 mg/kg/injection, schedule: Q01DX009 (ip), vehicle: water) was 120 % of control and the T/C (dose: 0.75 mg/kg/injection, schedule: Q01DX009 (ip), vehicle: saline) was 113 % of control. The T/C (dose: 0.75 mg/kg/injection, schedule: Q04DX003 (ip), vehicle: saline) was 91 % of control, the T/C (dose: 1.0 mg/kg/injection, schedule: Q01DX009 (ip), vehicle: saline) was 157 % of control and 168 % of control and the T/C (dose: 1.5 mg/kg/injection, schedule: Q01DX009 (ip), vehicle: saline) was 150 % of control. The T/C (dose: 1.5 mg/kg/injection, schedule: Q04DX003 (ip), vehicle: saline) was 91 % of control and 106 % of control, the T/C (dose: 2.0 mg/kg/injection, schedule: Q01DX009 (ip), vehicle: saline) was 107 % of control and the T/C (dose: 3.0 mg/kg/injection, schedule: Q04DX003 (ip), vehicle: saline) was 108 % of control and 115 % of control. For the same compound, the T/C (dose: 3.6 mg/kg/injection, schedule: Q01DX001 (ip), vehicle: water) was 100 % of control and 102 % of control, the T/C (dose: 6.0 mg/kg/injection, schedule: Q01DX001 (ip), vehicle: water) was 92 % of control and 102 % of control and the T/C (dose: 6.0 mg/kg/injection, schedule: Q04DX003 (ip), vehicle: saline) was 88 % of control and 97 % of control. For the same compound, the T/C (dose: 10.0 mg/kg/injection, schedule: Q01DX001 (ip), vehicle: water) was 101 % of control and 102 % of control and the T/C (dose: 16.7 mg/kg/injection, schedule: Q01DX001 (ip), vehicle: water) was 106 % of control.
For `CCCCCCCCN(C)N=Nc1ccc(Cl)cc1C(=O)O`, the T/C [1] was 103 % of control and the T/C [2] was 107 % of control.
In the case of `C1=NC(c2ccccn2)=NNC(c2ccccn2)=C1c1ccccc1`, the T/C [3] is reported as 100 % of control, the T/C [4] is reported as 101 % of control and the T/C [5] is reported as 86 % of control.
With `CCO` the T/C (dose: 250.0 mg/kg/injection, schedule: Q01DX009 (ip), vehicle: saline) was 109 % of control, the T/C (dose: 500.0 mg/kg/injection, schedule: Q01DX009 (ip), vehicle: saline) was 86 % of control and the T/C (dose: 1000.0 mg/kg/injection, schedule: Q01DX009 (ip), vehicle: saline) was 104 % of control. For the same compound, the T/C (dose: 2000.0 mg/kg/injection, schedule: Q01DX009 (ip), vehicle: saline) was 93 % of control.
In the case of `CN(C(N)=O)C1CCCC1`, the T/C [2] is reported as 114 % of control, the T/C [6] is reported as 100 % of control and the T/C (dose: 400.0 mg/kg/injection, schedule: Q01DX009 (ip), vehicle: saline with Tween-80) is reported as 93 % of control.
For `CC(C)C1(c2ccsc2)NC(=O)NC1=O` (stereo unspecified), the T/C [4] was 108 % of control, the T/C [5] was 122 % of control and the T/C [7] was 109 % of control.
With `CC1(O)Nc2nc3c(ncn3C3OC(CO)C(O)C3O)c(=O)n2C1O` (stereo unspecified) the T/C (dose: 12.5 mg/kg/injection, schedule: Q01DX009 (ip), vehicle: water) was 96 % of control, the T/C (dose: 25.0 mg/kg/injection, schedule: Q01DX009 (ip), vehicle: water) was 103 % of control and the T/C (dose: 50.0 mg/kg/injection, schedule: Q01DX009 (ip), vehicle: water) was 101 % of control. For the same compound, the T/C (dose: 100.0 mg/kg/injection, schedule: Q01DX009 (ip), vehicle: water) was 100 % of control, the T/C (dose: 200.0 mg/kg/injection, schedule: Q01DX009 (ip), vehicle: water) was 97 % of control and the T/C (dose: 400.0 mg/kg/injection, schedule: Q01DX009 (ip), vehicle: water) was 95 % of control.
With `OCC1OC(n2cnc3c(=S)nc[nH]c32)C(O)C1O` (stereo unspecified) the T/C (dose: 12.5 mg/kg/injection, schedule: Q01DX009 (ip), vehicle: saline sonified) was 102 % of control, the T/C (dose: 25.0 mg/kg/injection, schedule: Q01DX009 (ip), vehicle: saline sonified) was 105 % of control and the T/C (dose: 50.0 mg/kg/injection, schedule: Q01DX009 (ip), vehicle: saline sonified) was 105 % of control. The T/C [1] was 104 % of control, the T/C (dose: 100.0 mg/kg/injection, schedule: Q01DX009 (ip), vehicle: saline sonified) was 95 % of control and 100 % of control and the T/C [2] was 104 % of control. For the same compound, the T/C (dose: 200.0 mg/kg/injection, schedule: Q01DX009 (ip), vehicle: saline sonified) was 102 % of control and the T/C [6] was 100 % of control.
`O=c1ccn(C2OC(CO)C(O)C2O)c(=O)[nH]1` (stereo unspecified) was tested, and the T/C (dose: 16.0 mg/kg/injection, schedule: Q01DX009 (ip), vehicle: saline) was 100 % of control, the T/C (dose: 32.0 mg/kg/injection, schedule: Q01DX009 (ip), vehicle: Klucel (hydroxypropylcellulose) (HPC)) was 98 % of control and 104 % of control and the T/C (dose: 32.0 mg/kg/injection, schedule: Q01DX009 (ip), vehicle: saline) was 96 % of control and 101 % of control. The T/C (dose: 64.0 mg/kg/injection, schedule: Q01DX009 (ip), vehicle: Klucel (hydroxypropylcellulose) (HPC)) was 99 % of control and 101 % of control, the T/C (dose: 64.0 mg/kg/injection, schedule: Q01DX009 (ip), vehicle: saline) was 93 % of control and 98 % of control and the T/C (dose: 128.0 mg/kg/injection, schedule: Q01DX009 (ip), vehicle: Klucel (hydroxypropylcellulose) (HPC)) was 103 % of control. The T/C (dose: 128.0 mg/kg/injection, schedule: Q01DX009 (ip), vehicle: saline) was 101 % of control and 114 % of control, the T/C (dose: 256.0 mg/kg/injection, schedule: Q01DX009 (ip), vehicle: Klucel (hydroxypropylcellulose) (HPC)) was 97 % of control and 103 % of control and the T/C (dose: 256.0 mg/kg/injection, schedule: Q01DX009 (ip), vehicle: saline) was 100 % of control and 110 % of control. For the same compound, the T/C (dose: 512.0 mg/kg/injection, schedule: Q01DX009 (ip), vehicle: Klucel (hydroxypropylcellulose) (HPC)) was 102 % of control and 108 % of control and the T/C (dose: 512.0 mg/kg/injection, schedule: Q01DX009 (ip), vehicle: saline) was 105 % of control.
With `CS(=O)(=O)O` the T/C [8] was 106 % of control, the T/C (dose: 200.0 mg/kg/injection, schedule: Q01DX009 (ip), vehicle: saline) was 113 % of control and the T/C (dose: 400.0 mg/kg/injection, schedule: Q01DX009 (ip), vehicle: saline) was 123 % of control.
`Clc1ccc2c(c1)C(=P(c1ccccc1)(c1ccccc1)c1ccccc1)c1cc(Cl)cc(Cl)c1-2` was tested, and the T/C [2] was 91 % of control and the T/C [6] was 89 % of control.
With `CC(=O)OC1CCC2(C)C(CCC3C4CC=C(C(C)=O)C4(C)CCC32)C1` (stereo unspecified) the T/C [5] was 86 % of control, the T/C [7] was 98 % of control and the T/C (dose: 400.0 mg/kg/injection, schedule: Q01DX009 (ip), vehicle: Klucel (hydroxypropylcellulose) (HPC)) was 90 % of control.
For `CN(C)C(=S)S/C=C\C(=O)O`, the T/C (dose: 25.0 mg/kg/injection, schedule: Q04DX003 (ip), vehicle: Klucel (hydroxypropylcellulose) (HPC)) was 104 % of control, the T/C (dose: 50.0 mg/kg/injection, schedule: Q04DX003 (ip), vehicle: Klucel (hydroxypropylcellulose) (HPC)) was 96 % of control and the T/C (dose: 100.0 mg/kg/injection, schedule: Q04DX003 (ip), vehicle: Klucel (hydroxypropylcellulose) (HPC)) was 92 % of control. The T/C (dose: 200.0 mg/kg/injection, schedule: Q04DX003 (ip), vehicle: Klucel (hydroxypropylcellulose) (HPC)) was 113 % of control.
In the case of `Nc1[nH]c(=O)nc2nc[nH]c12`, the T/C (dose: 12.5 mg/kg/injection, schedule: Q01DX009 (ip), vehicle: saline) is reported as 108 % of control, the T/C (dose: 25.0 mg/kg/injection, schedule: Q01DX009 (ip), vehicle: saline) is reported as 94 % of control and the T/C (dose: 50.0 mg/kg/injection, schedule: Q01DX009 (ip), vehicle: saline) is reported as 89 % of control.
`COc1ccccc1NC(N)=S` was tested, and the T/C [3] was 110 % of control, the T/C [4] was 103 % of control and the T/C [5] was 100 % of control.
`O=C(O)c1ccccc1C(=O)c1ccc(CBr)cc1` was tested, and the T/C (dose: 0.05 mg/kg/injection, schedule: Q01DX009 (ip), vehicle: saline) was 100 % of control, the T/C (dose: 0.1 mg/kg/injection, schedule: Q01DX009 (ip), vehicle: saline) was 97 % of control and the T/C (dose: 0.2 mg/kg/injection, schedule: Q01DX009 (ip), vehicle: saline) was 100 % of control. For the same compound, the T/C (dose: 0.38 mg/kg/injection, schedule: Q04DX003 (ip), vehicle: saline with Tween-80) was 91 % of control, the T/C (dose: 0.75 mg/kg/injection, schedule: Q04DX003 (ip), vehicle: saline with Tween-80) was 95 % of control and the T/C (dose: 1.5 mg/kg/injection, schedule: Q01DX009 (ip), vehicle: saline with Tween-80) was 87 % of control. The T/C (dose: 1.5 mg/kg/injection, schedule: Q04DX003 (ip), vehicle: saline with Tween-80) was 100 % of control and the T/C (dose: 1.56 mg/kg/injection, schedule: Q04DX003 (ip), vehicle: saline with Tween-80) was 100 % of control.
`Nc1ccc2cc(S(=O)(=O)O)cc(O)c2c1N=Nc1ccc(F)cc1` was tested, and the T/C [8] was 87 % of control.
In the case of `O=c1[nH]cnc2ccc(Cl)cc12`, the T/C (dose: 37.5 mg/kg/injection, schedule: Q01DX009 (ip), vehicle: saline with Tween-80) is reported as 102 % of control and the T/C (dose: 75.0 mg/kg/injection, schedule: Q01DX009 (ip), vehicle: saline with Tween-80) is reported as 102 % of control.
